Patent US11414431B2, “Substituted pyrazolo[1,5-a]pyrimidines as TYK2 inhibitors” (Nimbus Lakshmi, Inc., priority 2018, dated 2022)

Test system: IL-12 induced STAT4 phosphorlyation mediated by TYK2/JAK2
Test: IL-12 Induced pSTAT4 in Human PBMC
Assay type: cell-based
Details: 1.7 ng/mL IL-12 for 30 minutes
In short: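 pSTAT4 and total STAT4 quantified by MSD in lysates of cryopreserved human PBMC after 30-minute stimulation with 1.7 ng/mL IL-12 (final). Compound was added 1 hr beforehand at 37° C, 0.1% DMSO final.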

Compound | IC50 | IC50 (0.5 h)
CNc1cc(-c2cn([C@H]3CC3(F)F)c3ncccc23)nc2c(C(=O)NC3COC[C@H]3O)cnn12 (stereo partly shown) [Compound I-709] | 0.1 to 0.5 µM | 
CNc1cc(-c2cn([C@@H]3CC3(F)F)c3ncccc23)nc2c(C(=O)N[C@@H]3COC[C@@H]3O)cnn12 [Compound I-713] | 0.1 to 0.5 µM | 
CNc1cc(-c2cn([C@H]3CCC[C@H]3F)c3ncccc23)nc2c(C(=O)NC3COC[C@H]3O)cnn12 (stereo partly drawn) [Compound I-721, 5-(1-((1S,2R)-2-Fluorocyclopentyl)-1H-pyrrolo[2,3-b]pyridin-3-yl)-N-((cis-3,4)-4-hydroxytetrahydrofuran-3-yl)-7-(methylamino)pyrazolo[1,5-a]pyrimidine-3-carboxamide] |  | < 0.1 µM
CNc1cc(-c2cn([C@@H]3COC[C@@H]3F)c3ncccc23)nc2c(C(=O)N[C@@H]3COC[C@@H]3O)cnn12 [Compound I-730] | 0.1 to 0.5 µM | 
O=C(NC1CCC1(F)F)c1cnn2c3c(c(-c4cn([C@H]5C[C@H](O)C5)c5ncccc45)nc12)OCCN3 (stereo partly drawn) [Compound I-775, N-(2,2-Difluorocyclobutyl)-5-(1-((1r,3S)-3-hydroxycyclobutyl)-1H-pyrrolo[2,3-b]pyridin-3-yl)-2,3-dihydro-1H-pyrazolo[5′,1′:2,3]pyrimido [5,4-b][1,4]oxazine-7-carboxamide] |  | < 0.1 µM
CNc1cc(-c2cn([C@H]3[C@@H]4COC[C@@H]43)c3ncccc23)nc2c(C(=O)NC3CC[C@@H]3OC)cnn12 (stereo partly drawn) [Compound I-792, 5-(1-((1R,5S,6r)-3-oxabicyclo[3.1.0]hexan-6-yl)-1H-pyrrolo[2,3-b]pyridin-3-yl)-N-((trans-1,2)-2-methoxycyclobutyl)-7-(methylamino)pyrazolo[1,5-a]pyrimidine-3-carboxamide] |  | < 0.1 µM
CNc1cc(-c2cn([C@H]3[C@@H]4COC[C@@H]43)c3ncccc23)nc2c(C(=O)N[C@H]3CC[C@@H]3OC)cnn12 [Compound I-793, 5-(1-((1R,5S,6r)-3-oxabicyclo[3.1.0]hexan-6-yl)-1H-pyrrolo[2,3-b]pyridin-3-yl)-N-((1S,2S)-2-methoxycyclobutyl)-7-(methylamino)pyrazolo[1,5-a]pyrimidine-3-carboxamide] | < 0.1 µM | 
CNc1cc(-c2cn(CCOC)c3ncccc23)nc2c(C(=O)NC3CC[C@@H]3OC)cnn12 (stereo partly shown) [Compound I-795] | < 0.1 µM | 
CNc1cc(-c2cn([C@H]3CCOC[C@H]3OC)c3ncccc23)nc2c(C(=O)N[C@H]3CC[C@@H]3F)cnn12 [Compound I-796] | < 0.1 µM | 
CNc1cc(-c2cn([C@@H]3CCOC[C@@H]3OC)c3ncccc23)nc2c(C(=O)N[C@H]3CC[C@@H]3F)cnn12 [Compound I-798] | < 0.1 µM | 
CNc1cc(-c2cn([C@H]3CCOC[C@@H]3F)c3ncccc23)nc2c(C(=O)N[C@H]3CC[C@@H]3OC)cnn12 [Compound I-802] | < 0.1 µM | 
CNc1cc(-c2cn([C@@H]3CCOC[C@H]3F)c3ncccc23)nc2c(C(=O)N[C@H]3CC[C@@H]3OC)cnn12 [Compound I-804] | < 0.1 µM | 
CNc1cc(-c2cn([C@@H]3CCC4(C3)OCCO4)c3ncccc23)nc2c(C(=O)N[C@H]3CC[C@@H]3OC)cnn12 [Compound I-806] | < 0.1 µM | 
CNc1cc(-c2cn([C@H]3CCC4(C3)OCCO4)c3ncccc23)nc2c(C(=O)N[C@H]3CC[C@@H]3OC)cnn12 [Compound I-808] | < 0.1 µM | 
CNc1cc(-c2cn([C@H]3CCOC[C@H]3OC)c3ncccc23)nc2c(C(=O)N[C@@H]3CCC3(F)F)cnn12 [Compound I-811] | < 0.1 µM | 
CNc1cc(-c2cnc3n([C@H]4COC[C@@H]4O)cccc2-3)nc2c(C(=O)NC3CC[C@@H]3F)cnn12 (stereo partly drawn) [Compound I-826, N-((trans-1,2)-2-Fluorocyclobutyl)-5-(7-((3S,4R)-4-hydroxytetrahydrofuran-3-yl)-7H-pyrrolo[2,3-b]pyridin-3-yl)-7-(methylamino)pyrazolo[1,5-a]pyrimidine-3-carboxamide] |  | < 0.1 µM
CNc1cc(-c2cnc3n([C@@H]4COC[C@H]4O)cccc2-3)nc2c(C(=O)NC3CC[C@@H]3F)cnn12 (stereo partly shown) [Compound I-827] | < 0.1 µM | 
CNc1cc(-c2cnc3n([C@H]4COC[C@@H]4O)cccc2-3)nc2c(C(=O)N[C@H]3CC[C@@H]3F)cnn12 [Compound I-828] | < 0.1 µM | 
CNc1cc(-c2cnc3n([C@@H]4COC[C@H]4O)cccc2-3)nc2c(C(=O)N[C@H]3CC[C@@H]3F)cnn12 [Compound I-830] | < 0.1 µM | 

Compound | IC50 | IC50 (0.5 h)
CNc1cc(-c2cnc3n([C@H]4COC[C@@H]4OC)cccc2-3)nc2c(C(=O)N[C@H]3CC[C@@H]3F)cnn12 [Compound I-833] | < 0.1 µM | 
CNc1cc(-c2cnc3n([C@@H]4COC[C@H]4OC)cccc2-3)nc2c(C(=O)NC3CC[C@@H]3F)cnn12 (stereo partly shown) [Compound I-835] | < 0.1 µM | 
CNc1cc(-c2cnc3n([C@H]4COC[C@@H]4OC)cccc2-3)nc2c(C(=O)NC3CC[C@H]3F)cnn12 (stereo partly shown) [Compound I-838] | < 0.1 µM | 
CNc1cc(-c2cnc3n([C@H]4COC[C@@H]4OC)cccc2-3)nc2c(C(=O)N[C@H]3CC[C@H]3F)cnn12 [Compound I-839] | < 0.1 µM | 
CNc1cc(-c2cnc3n([C@H]4COC[C@@H]4OC)cccc2-3)nc2c(C(=O)N[C@@H]3CC[C@@H]3F)cnn12 [Compound I-840] | < 0.1 µM | 
CNc1cc(-c2cnc3n([C@@H]4COC[C@H]4OC)cccc2-3)nc2c(C(=O)NC3CC[C@H]3F)cnn12 (stereo partly shown) [Compound I-841] | < 0.1 µM | 
CNc1cc(-c2cnc3n([C@@H]4CCOC[C@H]4O)cccc2-3)nc2c(C(=O)N[C@H]3CC[C@@H]3F)cnn12 [Compound I-848] | < 0.1 µM | 
CNc1cc(-c2cnc3n([C@@H]4COC[C@H]4OC)cccc2-3)nc2c(C(=O)NC3CC[C@H]3O)cnn12 (stereo partly shown) [Compound I-865] | 0.5 to 1 µM | 
CNc1cc(-c2cnc3n([C@@H]4COC[C@H]4OC)cccc2-3)nc2c(C(=O)N[C@@H]3CC[C@@H]3O)cnn12 [Compound I-867] | 0.1 to 0.5 µM | 
CNc1cc(-c2cnc3n([C@@H]4COC[C@H]4O)cccc2-3)nc2c(C(=O)N[C@@H]3CC[C@H]3OC)cnn12 [Compound I-876] | < 0.1 µM | 
CNc1cc(-c2cnc3n([C@H]4COC[C@@H]4O)cccc2-3)nc2c(C(=O)NC3CC[C@@H]3OC)cnn12 (stereo partly shown) [Compound I-877] | 0.1 to 0.5 µM | 
CNc1cc(-c2cnc3n([C@H]4COC[C@@H]4O)cccc2-3)nc2c(C(=O)N[C@@H]3CC[C@H]3OC)cnn12 [Compound I-878] | < 0.1 µM | 
CNc1cc(-c2cnc3n([C@H]4COC[C@@H]4OC)cccc2-3)nc2c(C(=O)NC3CC[C@@H]3OC)cnn12 (stereo partly shown) [Compound I-880] | < 0.1 µM | 
CNc1cc(-c2cnc3n([C@H]4COC[C@@H]4OC)cccc2-3)nc2c(C(=O)N[C@@H]3CC[C@H]3OC)cnn12 [Compound I-881] | < 0.1 µM | 
CNc1cc(-c2cnc3n([C@@H]4COC[C@H]4OC)cccc2-3)nc2c(C(=O)NC3CC[C@@H]3OC)cnn12 (stereo partly shown) [Compound I-883] | < 0.1 µM | 
CNc1cc(-c2cnc3n([C@@H]4COC[C@H]4OC)cccc2-3)nc2c(C(=O)N[C@@H]3CC[C@H]3OC)cnn12 [Compound I-884] | < 0.1 µM | 
CNc1cc(-c2cnc3n([C@@H]4CCOC[C@H]4OC)cccc2-3)nc2c(C(=O)N[C@@H]3CC[C@H]3OC)cnn12 [Compound I-896] | < 0.1 µM | 
CNc1cc(-c2cnc3n([C@H]4COC[C@@H]4O)cccc2-3)nc2c(C(=O)NC3CCC3(F)F)cnn12 (stereo partly shown) [Compound I-898] | < 0.1 µM | 

Second part, the molecule after the results:

IC50 | IC50 (0.5 h) | Compound
< 0.1 µM |  | CNc1cc(-c2cn([C@@H]3COC[C@H]3O)c3ncccc23)nc2c(C(=O)N[C@H]3CCC3(F)F)cnn12 [Compound I-693]
< 0.1 µM |  | CNc1cc(-c2cn([C@H]3COC[C@@H]3O)c3ncccc23)nc2c(C(=O)NC3CCC3(F)F)cnn12 (stereo partly shown) [Compound I-695]
< 0.1 µM |  | CNc1cc(-c2cn(C3CCOCC3)c3ncccc23)nc2c(C(=O)N[C@H]3CCC3(F)F)cnn12 [Compound I-699]
< 0.1 µM |  | CNc1cc(-c2cn([C@@H]3CCOC[C@@H]3OC)c3ncccc23)nc2c(C(=O)NC3CCC3(F)F)cnn12 (stereo partly shown) [Compound I-702]
< 0.1 µM |  | CNc1cc(-c2cn([C@@H]3CCOC[C@@H]3OC)c3ncccc23)nc2c(C(=O)N[C@H]3CCC3(F)F)cnn12 [Compound I-703]
< 0.1 µM |  | CNc1cc(-c2cn([C@H]3CC3(F)F)c3ncccc23)nc2c(C(=O)N[C@@H]3COC[C@@H]3O)cnn12 [Compound I-711]
< 0.1 µM |  | CNc1cc(-c2cn([C@H]3CCC[C@H]3F)c3ncccc23)nc2c(C(=O)N[C@H]3COC[C@H]3O)cnn12 [Compound I-722]
< 0.1 µM |  | CNc1cc(-c2cn([C@H]3COC[C@H]3F)c3ncccc23)nc2c(C(=O)N[C@H]3COC[C@H]3O)cnn12 [Compound I-726]
< 0.1 µM |  | CNc1cc(-c2cn([C@H]3COC[C@@H]3OC)c3ccccc23)nc2c(C(=O)NC3CC[C@@H]3OC)cnn12 (stereo partly shown) [Compound I-741]
< 0.1 µM |  | CNc1cc(-c2cn([C@H]3COC[C@@H]3OC)c3ccccc23)nc2c(C(=O)N[C@H]3CC[C@@H]3OC)cnn12 [Compound I-742]
< 0.1 µM |  | CNc1cc(-c2cn([C@@H]3COC[C@H]3OC)c3ccccc23)nc2c(C(=O)NC3CC[C@@H]3OC)cnn12 (stereo partly shown) [Compound I-744]
< 0.1 µM |  | CNc1cc(-c2cn([C@@H]3COC[C@H]3OC)c3ccccc23)nc2c(C(=O)N[C@@H]3CC[C@H]3OC)cnn12 [Compound I-746]
< 0.1 µM |  | CO[C@@H]1CC[C@H]1NC(=O)c1cnn2c3c(c(Nc4cccn(C(C)C)c4=O)nc12)OCCN3 [Compound I-760]
< 0.1 µM |  | O=C(N[C@H]1CCC1(F)F)c1cnn2c3c(c(-c4cn([C@H]5C[C@H](O)C5)c5ncccc45)nc12)OCCN3 [Compound I-776]
< 0.1 µM |  | CNc1cc(Nc2cccn([C@H]3C[C@@H](OC)C3)c2=O)nc2c(C(=O)NC3CC[C@@H]3OC)cnn12 (stereo partly shown) [Compound I-780]
< 0.1 µM |  | CNc1ccc(-c2cc(NC)n3ncc(C(=O)N[C@H]4CC[C@H]4F)c3n2)n2ccnc12 [Compound I-784]
< 0.1 µM |  | CNc1cc(-c2cn([C@@H]3COC[C@H]3OC)c3ccccc23)nc2c(C(=O)N[C@H]3CC[C@H]3O)cnn12 [Compound I-787]
< 0.1 µM |  | CNc1cc(-c2cn([C@H]3COC[C@@H]3OC)c3ccccc23)nc2c(C(=O)N[C@H]3CC[C@H]3O)cnn12 [Compound I-790]
